One compound from patent US8822754B2, “Ecdysone receptor-based inducible gene expression system” (Intrexon Corporation, priority 2000, dated 2014) can be followed below.

In test [1] the test system is CfVgRXR + MmRXR. The test is described as follows: Transactivation of reporter genes through switch 1.9 in 293 cells. It counts as cell-based, Choristoneura fumiferana. Particulars: switch 1.9 CfVgRXR + MmRXR, pIND(SP1)LacZ. The method, then: (§1) This example was prepared in the same way as switch 1.8 except DinEcR was replaced with a truncated CfEcR comprising a partial A/B domain and the complete CDEF domains [SEQ ID NO: 62 (polynucleotide) and SEQ ID NO: 63 (polypeptide)].
(§2) The same procedures described for CHO were followed for 293 cells except that the cells were plated in biocoated plates to avoid clumping.
(§3) Cells were harvested 24-48 hr after adding ligands. […] Twenty μl of lysate was assayed.

The target of test [2] is T1, GAL4RXR + VP16DmEcR (Drosophila melanogaster, UniProt P34021).
T1 sequence (P34021 254-878): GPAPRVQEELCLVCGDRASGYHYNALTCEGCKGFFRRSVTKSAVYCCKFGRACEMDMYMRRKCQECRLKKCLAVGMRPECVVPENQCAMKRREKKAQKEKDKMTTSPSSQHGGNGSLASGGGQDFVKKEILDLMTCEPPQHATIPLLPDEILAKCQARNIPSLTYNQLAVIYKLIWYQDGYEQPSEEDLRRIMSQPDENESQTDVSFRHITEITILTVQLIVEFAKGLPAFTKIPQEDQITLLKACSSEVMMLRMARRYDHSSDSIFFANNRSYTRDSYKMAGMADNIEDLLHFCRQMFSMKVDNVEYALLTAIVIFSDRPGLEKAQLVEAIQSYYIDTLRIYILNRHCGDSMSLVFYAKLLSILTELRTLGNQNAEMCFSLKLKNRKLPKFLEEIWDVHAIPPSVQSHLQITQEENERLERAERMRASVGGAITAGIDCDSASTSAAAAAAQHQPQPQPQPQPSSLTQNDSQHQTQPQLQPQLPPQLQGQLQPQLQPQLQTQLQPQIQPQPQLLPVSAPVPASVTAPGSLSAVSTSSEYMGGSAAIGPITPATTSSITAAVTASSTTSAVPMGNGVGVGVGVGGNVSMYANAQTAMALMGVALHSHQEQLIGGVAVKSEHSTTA
T1 sequence (P28700 206-467 partner limits assumed): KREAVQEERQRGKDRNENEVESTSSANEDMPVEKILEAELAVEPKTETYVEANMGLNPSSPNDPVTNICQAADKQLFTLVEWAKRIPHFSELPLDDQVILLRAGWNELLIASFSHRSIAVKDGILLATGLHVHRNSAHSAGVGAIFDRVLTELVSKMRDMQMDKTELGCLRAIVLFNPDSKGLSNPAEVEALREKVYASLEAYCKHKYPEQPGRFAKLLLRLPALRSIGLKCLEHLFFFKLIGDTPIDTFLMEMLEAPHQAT
The test is described as follows: Transactivation of reporter genes through switch 1.4 in CV1 cells. It counts as cell-based. The arrangement: expressed in transfected cells; host or cells: CV1 cells (transient co-transfection). Particulars: switch 1.4 GAL4RXR + VP16DmEcR, pGAL4RELuc. The method, then:
(§4) This construct was prepared in the same way as switch 1.3 except CfEcRCDEF was replaced with DmEcRCDEF (SEQ ID NO: 6).
(§5) The same procedures described for NIH3T3 cells were followed for CV1 cells
as §3
Background: Reporter assays use an easily measured gene product as a stand-in for the process of interest.

The next test deals with GAL4EcR + VP16RXR. As to the kind of experiment: Transactivation of reporter genes through switch 1.1 in CHO cells. Type of test: cell-based, Choristoneura fumiferana. The following applies: switch 1.1 GAL4EcR + VP16RXR, pGAL4RELuc. The method, then: (§6) The cells were harvested and reporter activity was assayed.
as §3

A further test deals with GAL4RXR + VP16CfEcR. The test is described as follows: Transactivation of reporter genes through switch 1.3 in 293 cells. The following applies: switch 1.3 GAL4RXR + VP16CfEcR, pGAL4RELuc. It counts as cell-based, Choristoneura fumiferana. The method, then:
as §2, §3

The test system of test [3] is GAL4USP + VP16CfEcR. As to the kind of experiment: Transactivation of reporter genes through switch 1.5 in CV1 cells. The following applies: switch 1.5 GAL4USP + VP16CfEcR, pGAL4RELuc. It counts as cell-based, Choristoneura fumiferana. The method, then: (§7) This construct was prepared in the same way as switch 1.3 except MmRXRDEF was replaced with CfUSPDEF (SEQ ID NO: 58).
as §5, §3

Another test concerns CfVgRXR. The test is described as follows: Transactivation of reporter genes through switch 1.10 in 3T3 cells. Type of test: cell-based, Choristoneura fumiferana. The following applies: switch 1.10 CfVgRXR, pIND(SP1)LacZ. The method, then:
This example was prepared in the same way as switch 1.9 except MmRXR (SEQ ID NO: 53) was deleted.
(§8) The cells were plated when they reached 50% confluency.
as §3

Test [4] deals with CfVgRXR + MmRXR. The test is described as follows: Transactivation of reporter genes through switch 1.9 in CV1 cells. Type of test: cell-based, Choristoneura fumiferana. The following applies: switch 1.9 CfVgRXR + MmRXR, pIND(SP1)LacZ. The method, then:
as §1, §5, §3

Test [5] relates to CfVgRXR + MmRXR. The test is described as follows: Transactivation of reporter genes through switch 1.9 in CHO cells. It counts as cell-based, Choristoneura fumiferana. The following applies: switch 1.9 CfVgRXR + MmRXR, pIND(SP1)LacZ. The method, then:
as §1, §6, §3

In test [6] the test system is GAL4EcR + VP16USP. The test is described as follows: Transactivation of reporter genes through switch 1.2 in CHO cells. Type of test: cell-based, Choristoneura fumiferana. Particulars: switch 1.2 GAL4EcR + VP16USP, pGAL4RELuc. The method, then: (§9) This construct was prepared in the same way as in switch 1.1 above except MmRXRDEF was replaced with the D, E and F domains from spruce budworm USP (“CfUSPDEF”; SEQ ID NO: 58). The constructs used in this example are similar to those disclosed in U.S. Pat. No. 5,880,333 except that Choristoneura fumiferana USP rather than Drosophila melanogaster USP was utilized.
as §6, §3

Test [7] has as its target T1, GAL4RXR + VP16DmEcR. As to the kind of experiment: Transactivation of reporter genes through switch 1.4 in 3T3 cells. Type of test: cell-based. Particulars: switch 1.4 GAL4RXR + VP16DmEcR, pGAL4RELuc. The method, then: as §4, §8, §3
The subject of test [8] is GAL4EcR + VP16USP. As to the kind of experiment: Transactivation of reporter genes through switch 1.2 in 293 cells. It counts as cell-based, Choristoneura fumiferana. The following applies: switch 1.2 GAL4EcR + VP16USP, pGAL4RELuc. The method, then: as §9, §2, §3
In a further test the target is T2, DmVgRXR + MmRXR (Drosophila melanogaster, UniProt P34021, E282G/G283S/G286V).
T2 construct: host or cells: CHO, NIH3T3, 293 or CV1 cells (one cell line per assay)
The test is described as follows: Transactivation of reporter genes through switch 1.8 in 3T3 cells. Particulars: switch 1.8 DmVgRXR + MmRXR, pIND(SP1)LacZ. Type of test: cell-based.
Text: This system was purchased from Invitrogen Corp., Carlsbad, Calif. It comprises a Drosophila melanogaster EcR (“DmEcR”) with a modified DNABD fused to VP16AD and placed under the control of a CMV promoter (SEQ ID NO: 60). Full length MmRXR (SEQ ID NO: 53) was placed under the control of the RSV promoter (SEQ ID NO: 61). The reporter, pIND(SP1)LacZ, contains five copies of a modified ecdysone response element (“EcRE”, E/GRE), three copies of an SP1 enhancer, and a minimal heat shock promoter, all of which were placed upstream to the LacZ reporter gene.
as §8, §3

The subject of test [9] is GAL4USP + VP16CfEcR. As to the kind of experiment: Transactivation of reporter genes through switch 1.5 in 3T3 cells. Particulars: switch 1.5 GAL4USP + VP16CfEcR, pGAL4RELuc. It counts as cell-based, Choristoneura fumiferana. The method, then:
as §7, §8, §3

The subject of test [10] is GAL4EcR + VP16USP. The test is described as follows: Transactivation of reporter genes through switch 1.2 in 3T3 cells. It counts as cell-based, Choristoneura fumiferana. Particulars: switch 1.2 GAL4EcR + VP16USP, pGAL4RELuc. The method, then:
as §9, §8, §3

T2 sequence (P34021 whole entry E282G/G283S/G286V): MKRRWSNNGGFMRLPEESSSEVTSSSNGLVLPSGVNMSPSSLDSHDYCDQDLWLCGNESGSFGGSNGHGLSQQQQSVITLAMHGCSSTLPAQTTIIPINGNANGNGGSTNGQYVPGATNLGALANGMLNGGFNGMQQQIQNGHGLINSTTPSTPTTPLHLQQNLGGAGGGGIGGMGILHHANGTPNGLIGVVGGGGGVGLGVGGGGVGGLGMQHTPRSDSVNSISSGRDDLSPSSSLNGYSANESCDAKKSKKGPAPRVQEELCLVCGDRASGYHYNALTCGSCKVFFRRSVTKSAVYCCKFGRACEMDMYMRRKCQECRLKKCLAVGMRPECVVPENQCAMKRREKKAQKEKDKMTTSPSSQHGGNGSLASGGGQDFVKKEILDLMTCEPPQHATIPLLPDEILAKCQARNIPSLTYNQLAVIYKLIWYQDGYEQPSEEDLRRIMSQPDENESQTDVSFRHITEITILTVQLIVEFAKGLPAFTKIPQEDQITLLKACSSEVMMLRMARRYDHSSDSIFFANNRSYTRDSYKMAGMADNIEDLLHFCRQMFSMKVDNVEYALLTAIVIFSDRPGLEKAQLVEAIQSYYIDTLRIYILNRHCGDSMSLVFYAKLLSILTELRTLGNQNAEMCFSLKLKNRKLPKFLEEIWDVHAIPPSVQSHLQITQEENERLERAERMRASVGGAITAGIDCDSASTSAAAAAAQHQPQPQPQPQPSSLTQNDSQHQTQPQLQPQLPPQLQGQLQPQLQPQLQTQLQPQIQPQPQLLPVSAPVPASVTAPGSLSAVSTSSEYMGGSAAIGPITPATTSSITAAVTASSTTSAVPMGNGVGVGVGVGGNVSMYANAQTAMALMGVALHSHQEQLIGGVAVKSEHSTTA
T2 sequence (P28700 whole entry, further chain): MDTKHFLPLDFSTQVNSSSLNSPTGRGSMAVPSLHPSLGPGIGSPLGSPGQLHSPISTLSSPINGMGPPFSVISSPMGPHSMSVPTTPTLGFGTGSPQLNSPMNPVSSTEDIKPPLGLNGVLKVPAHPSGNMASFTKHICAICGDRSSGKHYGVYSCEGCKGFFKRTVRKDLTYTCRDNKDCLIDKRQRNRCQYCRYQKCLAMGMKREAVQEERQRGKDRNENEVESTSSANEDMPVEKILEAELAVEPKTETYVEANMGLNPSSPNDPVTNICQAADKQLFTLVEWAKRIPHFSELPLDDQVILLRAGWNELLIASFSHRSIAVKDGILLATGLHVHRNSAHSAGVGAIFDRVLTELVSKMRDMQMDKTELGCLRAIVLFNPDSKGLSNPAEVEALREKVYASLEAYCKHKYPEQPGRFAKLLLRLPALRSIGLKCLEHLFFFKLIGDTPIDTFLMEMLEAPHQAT

Regarding `CCc1c(OC)cccc1C(=O)NN(C(=O)c1cc(C)cc(C)c1)C(C)(C)C` [N-(2-ethyl-3-methoxybenzoyl)-N′-(3,5-dimethylbenzoyl)-N′-tert-butylhydrazine], the “Mean Fold Activation Through N-(2-ethyl-3-methoxybenzoyl)-N′-(3,5-dimethylbenzoyl)-N′-t-butylhydrazine” value turned out to be 12 fold in the test with CfVgRXR + MmRXR [1]; 80 fold on GAL4RXR + VP16DmEcR [2]; 17 fold in the test on GAL4RXR + VP16CfEcR; 3 fold in the test on GAL4USP + VP16CfEcR [3]; 2 fold in the test on CfVgRXR; 7 fold in the test on CfVgRXR + MmRXR [4]. Further, the “Mean Fold Activation Through N-(2-ethyl-3-methoxybenzoyl)-N′-(3,5-dimethylbenzoyl)-N′-t-butylhydrazine” value on GAL4RXR + VP16DmEcR [7] is listed as 269 fold; with GAL4EcR + VP16USP [8], 2 fold; on DmVgRXR + MmRXR, 21 fold; with GAL4USP + VP16CfEcR [9] it was 3 fold; in the test with GAL4EcR + VP16USP [10], 2 fold. Also, the “Mean Fold Activation with 50 μM N-(2-ethyl-3-methoxybenzoyl)-N′-(3,5-dimethylbenzoyl)-N′-t-butylhydrazine” value in the test with GAL4EcR + VP16RXR is 267 fold; with CfVgRXR + MmRXR [5] it was 27 fold; in the test on GAL4EcR + VP16USP [6], 2 fold.
